For two molecules, IC50, protection and mice killed results are on record in US6541482B2, “Carbocyclic nucleoside agents useful as selective inhibitors of proinflammatory cytokines” (priority 1993, dated 2003).

Assay [1] concerns TNF-α. Put plainly: Inhibition of TNF-α production by LPS-stimulated human monocyte-derived macrophages. In kind it is cell-based. To be noted: Macrophage; monocyte-derived macrophages from human peripheral blood, stimulated with LPS, 18 hours of culture; dose response 500 μM-0.1 μM; read-out: IC50 for inhibiting TNF-α levels. On the procedure:
Monocyte-derived macrophages stimulated with bacterial lipopolysaccharide (LPS) produce high levels of TNF-α (14.87±1.02 ηg/mL) during 18 hours of culture.

Assay [2] relates to lethal effects of LPS. Put plainly: D-galactosamine animal model of septic shock (protection against lethal effects of LPS). The class given is in vivo. To be noted: treated about 1 hour before i.p. challenge of D-galactosamine and LPS, 100 mg/kg i.p. for the azido compound; for protection: mice, vehicle HBSS 0% protection; for mice killed: vehicle HBSS 6 out of 6 killed by 18 hours. On the procedure: Mice treated with the vehicle Hanks Balanced Salt Solution (HBSS) approximately 1 hour before intraperitoneal (i.p.) challenge of D-galactosamine and LPS, succumb to disease by 18 hours after challenge (e.g. 6 out of 6 mice killed; 0% protection). […] Positive-control PTX afforded […] protection in this model (3 out of 6 mice killed; 50% protection).

On to `[N-]=[N+]=NC1CCC(n2cnc3c(N)ncnc32)C1` (stereo not drawn) [1R,3R-trans-1-(9-adenyl)-3-azidocyclopentane], for which the IC50 – broadly, the concentration needed to halve the response being measured – in assay [1] was found to be 5.48 ± 1.3 µM. In addition, in assay [2], the protection worked out at 66% and the mice killed is 2 out of 6.

Turning to `CC(=O)CCCCn1c(=O)c2c(ncn2C)n(C)c1=O` [Pentoxifylline], in assay [1], the IC50 was found to be 26.3 ± 16 µM. Moreover, in assay [2], the protection was 50% and the mice killed is reported as 3 out of 6.
